{
  "source": "patent US20090172826A1",
  "about": "“Model System for TCR (ZETA) Chain Downregulation” (priority 2003, published 2009)",
  "key": {"splenic T cells [1]": {"test_system": "splenic T cells", "assay": "CFSE division of splenic T cells from treated mice after ex vivo activation", "assay_type": "in vivo, mouse", "conditions": "BALB/c mice"}, "splenic T cells [2]": {"test_system": "splenic T cells", "assay": "BrdU incorporation in Thy1.2+ splenic T cells from treated mice after ex vivo activation", "parameters": "species or system mouse", "conditions": "for percentage of BrdU+ T cells of total T cells: BALB/c mice"}, "TCR ζ chain [3]": {"test_system": "TCR ζ chain", "assay": "TCR ζ chain expression in T cells of antigen-treated mice (immunoblot, FACS, confocal)", "assay_type": "in vivo, mouse", "conditions": "full repeated-injection regimen, wild-type mice, versus control mice"}, "[4]": {"test_system": "splenocytes isolated from P. gingivalis-treated mice", "assay_type": "cell-based, mouse", "conditions": "NH4Cl 20 mM 20 h or bafilomycin A1 5 h at 37° C."}, "TCR ζ chain [5]": {"test_system": "TCR ζ chain", "assay": "In vitro incubation of isolated T cells and non-T cells with IFN-γ or anti-IFN-γ, ζ chain FACS", "assay_type": "cell-based, mouse", "conditions": "IFN-γ 50 U/ml, 24 h, with or without control non-T cells", "experimental": "T cells alone or mixed with the indicated non-T cell populations were incubated in vitro for 24 h in the presence or absence of IFN-γ (50 U/ml). Cells were stained for cell surface Thy 1.2 and for total ζ chain expression, as described in FIG. 1A-F, and ζ chain expression is shown.\nTo examine whether IFN-γ directly or indirectly affects all T cell populations in the spleen, T cells from control mice were exposed to IFN-γ in the presence or absence of control non-T cell populations in vitro."}, "splenocytes": {"test_system": "splenocytes", "assay": "Mitogen-induced splenocyte proliferation, 3H-thymidine uptake", "assay_type": "in vivo, mouse", "conditions": "percent of response in control mice, FIG. 6c", "protocol": "For mitogen-induced cell proliferation [Leshem, B. et al. (1999) J Immunol Methods 223, 249-54], splenocytes (2×10^6 cells/ml) were cultured in the presence of anti-CD3ε (145-2C11), 2.5 μg/ml concanavalin A (Con A, Biomakor, Israel), 2 ng/ml phorbol 12-myristatel3-acetate (PMA, Sigma) combined with 0.2 μM calcium ionophore (Sigma), or in medium alone. Following 48 h of incubation at 37° C., 1 μCi of [^3H]-thymidine was added to each well. Cells were harvested 8 h later using a Tomtec (USA) cell harvester and counted in a MicroBeta scintillation counter (Wallac, Finland)."}, "IFN-γ": {"test_system": "IFN-γ", "assay": "IFN-γ in chamber exudates by ELISA", "assay_type": "in vivo, mouse", "conditions": "4 h after the third injection", "experimental": "(§1) The results are presented as the mean value of the individual mice in each treatment group. (n.d.) not detectable values of IFN-γ in the OVA-treated mice.\n(§2) Serum samples were collected at day +9 of the experiment and analyzed by ELISA for the levels of P.g.- or OVA-specific IgG1 and IgG2a antibodies as previously described [Houri-Haddad et al. (2000) id ibid.]. IFN-γ and IL-10 concentrations in the chamber exudates were determined at 4 and 24 h, respectively after the third P.g. injection by two-site ELISA [Frolov, I. et al. (1998) Immunology 93, 323-8]."}, "IL-10": {"test_system": "IL-10", "assay": "IL-10 in chamber exudates by ELISA", "assay_type": "in vivo, mouse", "conditions": "24 h after the third injection; P. gingivalis- versus OVA-treated mice", "experimental": "as §1, §2"}, "[6]": {"assay": "Specific serum IgG1 and IgG2a antibodies by ELISA", "assay_type": "in vivo, mouse", "conditions": "serum at day +9", "text": "FIG. 6A: To determine the type of response, mice were bled at day +9 of the experiment and the titer and isotype of the specific antibodies was established by ELISA. Endpoint titers are expressed as the reciprocal values of the last dilution with an OD of 0.1 at 405 nm above maximal absorbance values of samples collected from non-immunized mice.\nas §2"}, "[7]": {"conditions": "anti-CD3 and anti-CD28, 60 hours"}, "[8]": {"conditions": "activation with PMA and ionophore"}, "[9]": {"conditions": "activation with anti-CD3 and anti-CD28"}},
  "data": [
    {"molecule": "5′-TGACTGTGAACGTTCGAGATGA-3′ [CpG-ODNs]", "values": [
      {"measurement": "percentage of CFSE-labeled splenic T cells which divided 1-5 times", "setting": "splenic T cells [1]; PMA and ionophore, 60 hours", "result": 57, "unit": "%"},
      {"measurement": "percentage of CFSE-labeled splenic T cells which divided 1-5 times", "setting": "splenic T cells [1]; [7]", "result": 6, "unit": "%"},
      {"measurement": "T cell proliferation by BrdU incorporation", "setting": "splenic T cells [2]; TCR-mediated stimuli (anti-CD3, Con A), compared to controls", "result": "significantly lower response"},
      {"measurement": "percentage of BrdU+ T cells of total T cells", "setting": "splenic T cells [2]; activation with ConA", "result": 39, "unit": "%"},
      {"measurement": "percentage of BrdU+ T cells of total T cells", "setting": "splenic T cells [2]; [8]", "result": 80, "unit": "%"},
      {"measurement": "percentage of BrdU+ T cells of total T cells", "setting": "splenic T cells [2]; [9]", "result": 9, "unit": "%"},
      {"measurement": "ζ chain expression in splenocytes / splenic T cells", "setting": "TCR ζ chain [3]", "result": "significant ζ chain down-regulation"}
    ]},
    {"molecule": "5′-TGACTGTGAAGGTTGGAGATGA-3′ (listed as DNA, chemistry not given here) [mutated CpG-ODNs, ID; NO.2]", "values": [
      {"measurement": "percentage of CFSE-labeled splenic T cells which divided 1-5 times", "setting": "splenic T cells [1]; PMA and ionophore, 60 hours", "result": 80, "unit": "%"},
      {"measurement": "percentage of CFSE-labeled splenic T cells which divided 1-5 times", "setting": "splenic T cells [1]; [7]", "result": 84, "unit": "%"},
      {"measurement": "percentage of BrdU+ T cells of total T cells", "setting": "splenic T cells [2]; activation with ConA", "result": 83, "unit": "%"},
      {"measurement": "percentage of BrdU+ T cells of total T cells", "setting": "splenic T cells [2]; [8]", "result": 57, "unit": "%"},
      {"measurement": "percentage of BrdU+ T cells of total T cells", "setting": "splenic T cells [2]; [9]", "result": 71, "unit": "%"}
    ]},
    {"molecule": "Cl.N", "note": "[NH4Cl]", "values": [
      {"measurement": "ζ protein expression after incubation with lysosome inhibitor", "setting": "[4]", "result": "largely restored ζ protein expression"}
    ]},
    {"molecule": "CO/C1=C\\C(C)=C\\[C@@H](C)[C@@H](O)[C@@H](C)C/C(C)=C/C=C/[C@H](OC)[C@@H]([C@@H](C)[C@@H](O)[C@H](C)[C@@]2(O)C[C@@H](O)[C@H](C)[C@@H](C(C)C)O2)OC1=O", "note": "[bafilomycin A]", "values": [
      {"measurement": "ζ protein expression after incubation with lysosome inhibitor", "setting": "[4]", "result": "largely restored ζ protein expression"}
    ]},
    {"molecule": "IFN-γ", "values": [
      {"measurement": "ζ chain expression in control T cells exposed in vitro", "setting": "TCR ζ chain [5]", "result": "did not affect ζ chain expression"}
    ]},
    {"molecule": "OVA: chicken ovalbumin adsorbed to Al(OH)3 (Alum), then in PBS; elicits a TH2 response (protein, UniProt P01012 2-386, looked up, adsorbed to alum, chicken ovalbumin adsorbed to Al(OH)3 (Alum), then in PBS; elicits a TH2 response) Ovalbumin: GSIGAASMEFCFDVFKELKVHHANENIFYCPIAIMSALAMVYLGAKDSTRTQINKVVRFDKLPGFGDSIEAQCGTSVNVHSSLRDILNQITKPNDVYSFSLASRLYAEERYPILPEYLQCVKELYRGGLEPINFQTAADQARELINSWVESQTNGIIRNVLQPSSVDSQTAMVLVNAIVFKGLWEKAFKDEDTQAMPFRVTEQESKPVQMMYQIGLFRVASMASEKMKILELPFASGTMSMLVLLPDEVSGLEQLESIINFEKLTEWTSSNVMEERKIKVYLPRMKMEEKYNLTSVLMAMGITDVFSSSANLSGISSAESLKISQAVHAAHAEINEAGREVVGSAEAGVDAASVSEEFRADHPFLFCIKHIATNAVLFFGRCVSP", "values": [
      {"measurement": "function (proliferative response) of T cells in the spleen", "setting": "splenocytes", "result": "normal function"},
      {"measurement": "IFN-γ concentration in chamber exudates", "setting": "IFN-γ", "result": "practically undetectable"},
      {"measurement": "IL-10 concentration in chamber exudates", "setting": "IL-10", "result": "no great difference"},
      {"measurement": "specific serum antibodies, IgG1 and IgG2a isotype", "setting": "[6]", "result": "of the IgG1 isotype and not of the IgG2a isotype"},
      {"measurement": "ζ chain expression in splenocytes / splenic T cells", "setting": "TCR ζ chain [3]", "result": "did not induce profound ζ downregulation"}
    ]}
  ]
}
